# Results from US10240133B2, “ERK-derived peptides and uses thereof” (Yeda Research and Development Co. Ltd., priority 2013, dated 2019).
# Assays:
# [1] = system: PLX-4032 and U0126 resistant A2352 melanoma cells; assay: Proliferation of inhibitor-resistant melanoma cells; assay type: cell-based; conditions: 10 μM, 72 h
# Description: (A) A2352 melanoma cells resistant to either PLX4032 (B-Raf) or U0126 (MEK) inhibitors were treated with DMSO, EPE or Scr peptide (10 μM), U0126 (10 μM), PLX4032 (1 μM), Wortmannin (0.5 μM) or Taxol (25 μg/ml). Presented as percent of viable cells at 72 h/initial cell number. […] Methylene blue assay was performed to quantify viable cells. Experiments were done twice in triplicate. Data presented as fold change.
# All cells, except of MCF-10A, were seeded into 12-well cell plates in 1% FBS medium. MCF-10A cells were seeded in their complete medium diluted 5 fold. DMSO, Scr peptide, EPE peptide, or U0126 (final concentration of 10 μM each) were added to the appropriated wells four hours later. Every day medium was changed to fresh one containing the same agents. The number of viable cells was measured by Methylene Blue assay at 72 h after cell seeding. Shortly, cells were fixed with 4% Formaldehyde for 2 h at 23° C., washed once with 0.1M Borate Buffer pH 8.5 and stained with of 1% Methylene Blue in 0.1M Borate Buffer for 10 min. Color was extracted by adding 0.1 M HCl for 3 h at 23° C., and examined at 595 nm.
# A2352 cells were supplemented with either PLX4032 (B-Raf inhibitor, 1 μM), or U0126 (MEK inhibitor, 10 μM) for 45 days. […]
# [2] = mouse, in vivo
# Description: (§3) Female SCID mice (Harlan), 5-6 weeks of age, were inoculated s.c. into the flank region with 10^7 A2352 cells in 150 μl mixture of PBS with matrigel (2:1). Tumors were allowed to develop to the size of 5-6.5 mm in diameter (50˜110 mm^3 volume) and then the animals were randomly allocated to different treatment groups. The peptides (100 mM stock in DMSO), were diluted to the necessary concentration in PBS and boiled for 5 minutes. Then, DMSO, Scr or EPE peptides were administered by i.v. injection into the tail vein (150 μl/mouse, 3 times a week). Tumor dimensions were measured with a digital sliding caliper. Tumor volume was calculated using the formula: V=D1×D2×D3×π/6, where D1, D2, D3—represent the three mutually orthogonal growth diameters. To assess any signs of systemic toxicity, body weight was monitored, and recorded at the end of the experiment.
# (§4) Tumor xenografts, lungs, livers, kidneys and hearts of animals from different treatment groups were removed and subjected for histological analysis by staining of 5 μm paraffin embedded tissue slides with H&E, and examination by light microscope. […] Briefly, paraffin embedded blocks of tumors after different treatments were cut at 4 μm thickness and stained with ERK Abs, followed by second antibodies conjugated to peroxidase and DAB staining. Representative fields of each specimen were photographed at ×20 and ×40 magnifications.
# [3] = Systemic toxicity in xenograft-bearing mice (body weight, organ histology); conditions: treated animals, end of experiment
# Description: as §3, §4
# RSK = assay: Western blotting of RSK phosphorylation; assay type: cell-based; conditions: four distinct cell lines
# Description: (§1) (A) EPE peptide prevents ERK1/2-importin7 interaction. HeLa cells were serum starved (0.1%, 16 hours), pretreated with EPE peptide, scrambled peptide (10 μM, 2 hours) or DMSO, and then stimulated with TPA (250 nM, 15 min). ERK1 were precipitated with αgERK1 Ab; importin7 co-immunoprecipitated with ERK1 was detected by WB with αimportin7 Ab. […] T47D, HeLa, MDA-MB-231 and A2352 cells were serum starved (0.1%, 16 hours), pretreated with EPE peptide, scrambled peptide (10 μM, 2 hours) or DMSO control, and then stimulated with TPA (250 nM, indicated times). Cell extracts were subjected to Western blot analysis with the indicated Abs. (C) EPE peptide inhibits phosphorylation of c-Myc and Elk1 in B-Raf melanomas. A2158 and A2352 cells were treated with scrambled and EPE peptide for two hours and then stimulated with the indicated concentration of TPA for 30 min. […] (D) Quantification of some of the results in B and C. […]
# (§2) (i) Preparation of cellular extracts for Western Blotting: Cells were rinsed twice with ice-cold PBS and scraped into Radio-immunoprecipitation assay buffer (RIPA; 137 mM NaCl, 20 mM Tris (pH 7.4), 10% glycerol, 1% Triton X-100, 0.5% deoxycholate, 0.1% SDS, 2 mM EDTA, 1 mM PMSF, and 20 μM leupeptin). The extracts were centrifuged (20,000×g, 15 min, 4° C.), and the supernatants were further analyzed by Western blotting. […]
# ERK1/2 = assay: Nuclear translocation of ERK (fluorescence microscopy, subcellular fractionation); assay type: cell-based
# Description: FIGS. 1A-1F illustrate that EPE peptide prevents nuclear translocation of ERK1. A2352 (A), MDA-MB-231 (B) HeLa (C), T47D (D), NHEM-AD (E) and HB2 (F) cells were serum-starved, pretreated with the EPE peptides, Scr peptide (10 μM, 2 h) DMSO and then either stimulated with TPA (250 nM, 15 min) or left untreated (NS) as control. The cells were stained with αgERK1/2 Ab and DAPI. Scale-bar—15 μm.
# FIGS. 12A-12D illustrate that the EPE peptide inhibits the nuclear translocation of ERK1/2. Serum-starved (0.1% FCS, 16 hr) A2352 (FIG. 12A), HeLa (FIG. 12B), MDA-MB-231 (FIG. 12C), or LOXMVI (FIG. 12D) cells were pretreated with EPE or scrambled peptides (10 μM, 2 hr). Cells were then stimulated with EGF (50 ng/ml) or left untreated, and then harvested. Subcellular fractionation of cytoplasm and nucleus was performed as below, and fractions were subjected to Western blot analysis with the indicated Abs. Subcellular Fractionation was performed as follows: Harvested cells were resuspended in 200 μl of buffer H containing 0.1% Nonidet P-40. The lysates were mixed vigorously and centrifuged immediately to yield supernatants containing the cytosolic fraction. Nuclear proteins were extracted by resuspending the nuclear pellets in 200 μl of extraction buffer, waiting on ice for 5 min, brief sonication (2×5 sec, 40 W, 4° C.), vigorous mixing, and centrifugation. Both cytosolic and nuclear fractions were subjected to Western blotting.
# A2185 (A) and A2352 (B) B-Raf melanoma cells were serum-starved (16 hours, 0.1% FBS), and then either pretreated with the EPE peptides (10 μM, 2 hours) or left untreated. Then, the cells were stimulated with TPA ([…], 20 min), or left untreated (NS) DMSO as control. The cells were stained with either anti ERK1 (Santa Cruz, C16) or anti ERK2 (C14, Santa Cruz) Abs and DAPI. (C) Quantification of the number of cell in which ERK1 or ERK2 were mostly (>80%) localized in the nucleus was performed by counting 5 fields containing 100 cells per field.
# FIGS. 15A-15B illustrate that the EPE peptide prevents nuclear accumulation/translocation of ERK1/2 in PLX4032-resistant melanoma cells. A2352 that were made resistant to PLX4032 (as described under Material and Methods) and A4132 PLX4032 resistant melanoma cell from patient were serum-starved (16 hours, 0.1%), pretreated with the EPE or scrambled peptide (10 μM, 2 hours) and then either stimulated with TPA (100 nM, 20 min) or left untreated (NT) as control. The cells were stained with αgERK1/2 Ab and DAPI.
# Cells were fixed in 3% paraformaldehyde in PBS (20 min, 23° C.), and then permeabilized and blocked with 0.2% Triton X-100 in PBS-BSA (2%) for 20 min at 23° C. The fixed cells were sequentially incubated with appropriated Abs, (diluted in 10 μg/ml BSA/PBS) for 1 h, followed by either Cy-2 or rhodamine-conjugated secondary Abs and DAPI (diluted in BSA/PBS, 1:200) for 1 h. To follow the subcellular localization of the biotin-conjugated peptides, cells were incubated with Avidin-FITC (diluted in BSA/PBS 1:400) and DAPI. Slides were analyzed and photographed by a fluorescent microscope (Nikon, Japan, 600× magnification).
# c-Myc = assay: Western blotting of c-Myc phosphorylation; assay type: cell-based; conditions: A2158 and A2352 B-Raf melanomas
# Description: as §1, §2
sequence,measurement,setting,value
"GQLNHILGILGEPEQED (Synthetic peptide (EPE)) [EPE peptide, NTS-derived peptide with phosphomimetic EPE motif]",cell growth,[1],able to reduce cell growth
same,"size or structure of the kidneys, livers and hearts",[2],did not affect
same,structure of the lungs,[2],not affected
same,"change in weight, organ morphology or other toxicity-related effects",[3],None of the animal treated exhibited any significant change
same,downstream activity of RSK,RSK,no effect
same,"inhibitory effect on nuclear translocation of ERK, compared among SPS, EPE and APA peptides",ERK1/2,stronger than that of the other two
same,inhibition of ERK1 versus ERK2 translocation,ERK1/2; A2185 and A2352 B-Raf melanoma cells,No significant differences between the inhibition of ERK1 and ERK2
same,nuclear translocation of ERK1/2 by subcellular fractionation,"ERK1/2; A2352, HeLa, MDA-MB-231, LOXMVI, 10 μM, 2 hr, EGF",same trend of inhibition
same,amount of nuclear ERK1/2 in resistant melanoma cells,"ERK1/2; PLX4032-resistant A2352 and A4132 cells, 10 μM, 2 hours, TPA",reduced the amount of nuclear ERK1/2 both before and after stimulation
same,phosphorylation of c-Myc,c-Myc,did inhibit
